From PubChem BioAssay (NCI)
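Values below derive from 48-hour exposures of cells grown in 96-well plates, with endpoints linearly interpolated between the two concentrations bracketing the appropriate inhibition level. GI50 = concentration required for 50% inhibition of growth. TGI is the concentration that stops growth completely.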

Experiments:
Assay in all cases: NCI-60 cell line screen, 48 h
[1] = test system: 786-0 renal
[2] = test system: A498 renal
[3] = test system: A549 NSCLC
[4] = test system: ACHN renal
[5] = test system: BT-549 breast
[6] = test system: CAKI-1 renal
[7] = test system: CCRF-CEM leukemia
[8] = test system: COLO 205 colon
[9] = test system: DU-145 prostate
[10] = test system: EKVX NSCLC
[11] = test system: HCC-2998 colon
[12] = test system: HCT-116 colon
[13] = test system: HCT-15 colon
[14] = test system: HL-60(TB) leukemia
[15] = test system: HOP-62 NSCLC
[16] = test system: HOP-92 NSCLC
[17] = test system: HS 578T breast
[18] = test system: HT29 colon
[19] = test system: IGROV1 ovarian
[20] = test system: K-562 leukemia
[21] = test system: KM12 colon
[22] = test system: LOX IMVI melanoma
[23] = test system: M14 melanoma
[24] = test system: MALME-3M melanoma
[25] = test system: MCF7 breast
[26] = test system: MDA-MB-231 breast
[27] = test system: MDA-MB-435
[28] = test system: MOLT-4 leukemia
[29] = test system: NCI-H226 lung
[30] = test system: NCI-H23 lung
[31] = test system: NCI-H460 lung
[32] = test system: NCI-H522 lung
[33] = test system: NCI/ADR-RES ovarian
[34] = test system: OVCAR-3 ovarian
[35] = test system: OVCAR-4 ovarian
[36] = test system: OVCAR-5 ovarian
[37] = test system: OVCAR-8 ovarian
[38] = test system: PC-3 prostate
[39] = test system: RPMI-8226 leukemia
[40] = test system: RXF 393 renal
[41] = test system: SF-268 CNS
[42] = test system: SF-295 CNS
[43] = test system: SF-539 CNS
[44] = test system: SK-MEL-2 melanoma
[45] = test system: SK-MEL-28 melanoma
[46] = test system: SK-MEL-5 melanoma
[47] = test system: SK-OV-3 ovarian
[48] = test system: SN12C renal
[49] = test system: SNB-19 CNS
[50] = test system: SNB-75 CNS
[51] = test system: SR leukemia
[52] = test system: SW-620 colon
[53] = test system: T-47D breast
[54] = test system: TK-10 renal
[55] = test system: U251 CNS
[56] = test system: UACC-257 melanoma
[57] = test system: UACC-62 melanoma
[58] = test system: UO-31 renal

`O=P(CCCCP(=O)(c1ccccc1)c1ccccc1)(c1ccccc1)c1ccccc1.[Cl][Sn]([Cl])([c]1ccccc1)[c]1ccccc1` showed a GI50 [1] of 1070 nM, a TGI [1] of 2480 nM and a GI50 [2] of 2000 nM. The TGI [2] was 3760 nM, the GI50 [3] was 3590 nM and the TGI [3] was greater than 23600 nM. The GI50 [4] was 1860 nM, the TGI [4] was 3530 nM and the GI50 [5] was 1790 nM. It also gave a TGI [5] of 3860 nM, a GI50 [6] of 661 nM and a TGI [6] of 3320 nM. The GI50 [7] was 224 nM, the TGI [7] was 2390 nM and the GI50 [8] was 1780 nM. The TGI [8] was 3980 nM, the GI50 [9] was 2000 nM and the TGI [9] was 4520 nM. For the same compound, the GI50 [10] was 2710 nM, the TGI [10] was 7920 nM and the GI50 [11] was 2760 nM. It also gave a TGI [11] of 10100 nM, a GI50 [12] of 1710 nM and a TGI [12] greater than 100000 nM. It also gave a GI50 [13] of 1230 nM, a TGI [13] of 3020 nM and a GI50 [14] of 2040 nM. The TGI [14] was 6610 nM, the GI50 [15] was 462 nM and the TGI [15] was 2670 nM. It also gave a GI50 [16] of 1560 nM, a TGI [16] of 3180 nM and a GI50 [17] of 4100 nM. For the same compound, the TGI [17] was greater than 50600 nM, the GI50 [18] was 1890 nM and the TGI [18] was 4010 nM. For the same compound, the GI50 [19] was 3900 nM, the TGI [19] was 8390 nM and the GI50 [20] was 444 nM. For the same compound, the TGI [20] was greater than 100000 nM, the GI50 [21] was 3050 nM and the TGI [21] was 10500 nM. The GI50 [22] was 1290 nM, the TGI [22] was 5450 nM and the GI50 [23] was 1770 nM. For the same compound, the TGI [23] was 3810 nM, the GI50 [24] was 1410 nM and the TGI [24] was 3100 nM. It also gave a GI50 [25] of 876 nM, a TGI [25] of 2640 nM and a GI50 [26] of 626 nM. For the same compound, the TGI [26] was 2110 nM, the GI50 [27] was 1770 nM and the TGI [27] was 3910 nM. It also gave a GI50 [28] of 2060 nM, a TGI [28] greater than 100000 nM and a GI50 [29] of 5070 nM. The TGI [29] was 11300 nM, the GI50 [30] was 1480 nM and the TGI [30] was 3480 nM. The GI50 [31] was 6510 nM, the TGI [31] was 15900 nM and the GI50 [32] was 51.4 nM. The TGI [32] was 208 nM, the GI50 [33] was 2960 nM and the TGI [33] was 10800 nM. For the same compound, the GI50 [34] was 1610 nM, the TGI [34] was 3990 nM and the GI50 [35] was 1540 nM. It also gave a TGI [35] of 3000 nM, a GI50 [36] of 1930 nM and a TGI [36] of 4000 nM. The GI50 [37] was 2300 nM, the TGI [37] was 6280 nM and the GI50 [38] was 2290 nM. For the same compound, the TGI [38] was 6040 nM, the GI50 [39] was 332 nM and the TGI [39] was 1160 nM. It also gave a GI50 [40] of 1380 nM, a TGI [40] of 3130 nM and a GI50 [41] of 1750 nM. The TGI [41] was 4050 nM, the GI50 [42] was 6360 nM and the TGI [42] was 18300 nM. For the same compound, the GI50 [43] was 1430 nM, the TGI [43] was 3640 nM and the GI50 [44] was 1740 nM. The TGI [44] was 3390 nM, the GI50 [45] was 1700 nM and the TGI [45] was 3320 nM. For the same compound, the GI50 [46] was 1900 nM, the TGI [46] was 4070 nM and the GI50 [47] was 6250 nM. It also gave a TGI [47] of 19000 nM, a GI50 [48] of 2100 nM and a TGI [48] of 5760 nM. For the same compound, the GI50 [49] was 4180 nM, the TGI [49] was 18000 nM and the GI50 [50] was 1570 nM. It also gave a TGI [50] of 3290 nM, a GI50 [51] of 1780 nM and a TGI [51] greater than 100000 nM. For the same compound, the GI50 [52] was 696 nM, the TGI [52] was 5590 nM and the GI50 [53] was 73 nM. The TGI [53] was 415 nM, the GI50 [54] was 1770 nM and the TGI [54] was 3320 nM. The GI50 [55] was 2000 nM, the TGI [55] was 4770 nM and the GI50 [56] was 1680 nM. For the same compound, the TGI [56] was 3310 nM, the GI50 [57] was 1590 nM and the TGI [57] was 3300 nM. For the same compound, the GI50 [58] was 1680 nM and the TGI [58] was 3190 nM.
